Experimental data taken from patent publication US7265099B1, “Use of chemical chelators as reversal agents for drug-induced neuromuscular block” (Organon N.V., priority 1999, dated 2007).
Marks after values point to notes of the source that are not given here.

How the values were obtained:
[1] = system: steady-state neuromuscular block induced by suxamethonium chloride (Sux; succinylcholine); experiment: Reversal of neuromuscular blockade in vivo, anaesthetized guinea pig, suxamethonium; settings: Sux infusion, 85–90% block, anaesthetized guinea pigs, i.v. reversal agent; mean
Experimental: (§1) Male Dunkin-Hartley guinea pigs (bodyweight: 600–900 g) were anaesthetized by i.p. administration of 10 mg/kg pentobarbitone and 1000 mg/kg urethane. After tracheotomy, the animals were artificially ventilated using a Harvard small animal ventilator. A catheter was placed into the carotid artery for continuous monitoring of arterial blood pressure and the taking of blood samples for blood gas analysis. Heart rate was derived from the blood pressure signal. The sciatic nerve was stimulated (rectangular pulses of 0.5 ms duration at 10 s (0.1 Hz) intervals at a supramaximal voltage, using a Grass S88 Stimulator) and the force of M. gastrocnemius contractions was measured using a Grass FT03 force-displacement transducer. Contractions, blood pressure and heart rate were recorded on a multichannel Grass 7D recorder. Catheters were placed in both jugular veins. One catheter was used for the continuous infusion of a neuromuscular blocking agent. The infusion rate of the neuromuscular blocking agent was increased until a steady-state block of 85–90% was obtained. The other catheter was used for administration of increasing doses of the reversal agent. During continuous infusion of the neuromuscular blocking agent, single doses of increasing concentration of reversal agent were given. At the end of the experiment, the measured force of muscle contractions was plotted against the concentration of reversal agent, and using regression analysis techniques, the 50% reversal concentration was calculated.

[2] = system: neuromuscular block induced by rocuronium in isolated mouse hemidiaphragm; experiment: Reversal of neuromuscular block in vitro: isolated mouse hemidiaphragm preparation
Experimental: Hemidiaphragms, with phrenic nerves attached, were removed from euthanized male mice (Institute of Cancer Research; bodyweight: 20–60 g). The preparations were mounted on a tissue holder and placed in a tissue bath filled with a modified Krebs-Henseleit solution (composition: 118 mM NaCl, 30 mM NaHCO3, 5 mM KCl, 1 mM KH2PO4, 1 mM MgSO4, 30 mM glucose and 2.5 mM CaCl2) at 37° C. and bubbled with 95% oxygen and 5% carbondioxide. One end of the preparation was connected with a siliconized silk suture to a Grass FT03 force-displacement transducer. An initial force of 10 mN was applied. The phrenic nerve was placed on a bipolar platinum electrode and was stimulated with rectangular pulses of 0.2 ms duration at 20 s (0.05 Hz) intervals at a supramaximal voltage, using a Grass S88 Stimulator. Contractions were recorded on a four channel Grass 79D recorder.
Increasing amounts of reversal agent were then administered into the bath at intervals of 10 min. The % maximum reversal was established. At the end of the experiment, the measured muscle contractions force was plotted against the concentration of reversal agent, and using regression analysis techniques, the 50% reversal concentration was calculated.
After induction of neuromuscular block by rocuronium, the % maximum reversal produced by the addition of a number of γ-cyclodextrin derivatives (compounds 11–16), a cyclic octasaccharide comprising 4 rhamnosyl-mannopyranosyl units (compound 24), or a number of paracyclophane derivatives (compounds 17–21 and 23) are presented in Table II.
Reversal of neuromuscular block in vitro was carried out using the mouse hemidiaphragm preparation as described in Example 6.

[3] = system: steady-state neuromuscular block induced by rocuronium bromide (Roc); experiment: Reversal of neuromuscular blockade in vivo, anaesthetized guinea pig, rocuronium; settings: Roc infusion, 85–90% block, anaesthetized guinea pigs, i.v. reversal agent; mean
Experimental: as §1
Reversal of neuromuscular block in vivo, induced by rocuronium bromide, was carried out as described in Example 5.

[4] = system: steady-state neuromuscular block induced by vecuronium bromide (Vec); experiment: Reversal of neuromuscular blockade in vivo, anaesthetized guinea pig, vecuronium; settings: Vec infusion, 85–90% block, anaesthetized guinea pigs, i.v. reversal agent; mean
Experimental: as §1

[5] = system: steady-state neuromuscular block induced by cis-atracurium (Cis-Atr); experiment: Reversal of neuromuscular blockade in vivo, anaesthetized guinea pig, cis-atracurium; settings: Cis-Atr infusion, 85–90% block, anaesthetized guinea pigs, i.v. reversal agent; mean
Experimental: as §1

[6] = system: steady-state neuromuscular block induced by atracurium besilate (Atr); experiment: Reversal of neuromuscular blockade in vivo, anaesthetized guinea pig, atracurium; settings: Atr infusion, 85–90% block, anaesthetized guinea pigs, i.v. reversal agent; mean
Experimental: as §1

[7] = system: steady-state neuromuscular block induced by tubocurarine chloride (T-C); experiment: Reversal of neuromuscular blockade in vivo, anaesthetized guinea pig, tubocurarine; settings: T-C infusion, 85–90% block, anaesthetized guinea pigs, i.v. reversal agent; mean
Experimental: as §1

[8] = system: steady-state neuromuscular block induced by mivacurium chloride (Miv); experiment: Reversal of neuromuscular blockade in vivo, anaesthetized guinea pig, mivacurium; settings: Miv infusion, 85–90% block, anaesthetized guinea pigs, i.v. reversal agent; mean
Experimental: as §1

[9] = system: steady-state neuromuscular block induced by pancuronium bromide (Pan); experiment: Reversal of neuromuscular blockade in vivo, anaesthetized guinea pig, pancuronium; settings: Pan infusion, 85–90% block, anaesthetized guinea pigs, i.v. reversal agent; mean
Experimental: as §1

[10] = Complexation of rocuronium bromide by chemical chelators (1H NMR, 303 K); type: binding; settings: NMR spectroscopy at 303 K, D2O, curve fitting of proton chemical shift changes
Experimental: All the ^1H spectra (303 K) were recorded at 400.13 MHz with 128 scans, sw=12 ppm, TD=32 k and zero filled to 64 k real points in processing. All experiments were measured at 303K.
Determination of Stoichiometry
Stock solutions of rocuronium bromide and γ-cyclodextrin (15) were prepared, both with a concentration of 6.02 mM. From these, sixteen solutions were prepared (with the mole % of rocuronium ranging from 0-100) by taking aliquots of 0–800 μl of the rocuronium bromide solution. Aliquots of the γ-cyclodextrin solution, 800–0 μl were added to make the solution a total volume of 800 μl and 100 mole % (i.e. 6.02 mM of [rocuronium bromide+γ-cyclodextrin]). ^1H-NMR spectra were recorded as described above.
If the chemical shift change of H9α in rocuronium bromide is defined as Δδ then a plot of [Δδ*(mole % rocuronium bromide)] vs. [mole % rocuronium bromide] gives a so called Job Plot by the method of continuous variation (Connors K. A.: Binding constants, The measurement of Molecular Complex Stability; Wiley-Interscience; New York, 1987, pp 24–28). The maximum in this plot is indicative for the stoichiometry of the complex.
Determination of the Association Constants
A stock solution of rocuronium bromide: 0.821 mM in D2O was prepared. […]
^1H NMR spectra were recorded as descibed above. […]

[11] = system: steady-state neuromuscular block induced by rapacuronium bromide (Rap; Org 9487); experiment: Reversal of neuromuscular blockade in vivo, anaesthetized guinea pig, rapacuronium; settings: Rap infusion, 85–90% block, anaesthetized guinea pigs, i.v. reversal agent; mean
Experimental: as §1

SMILES: OC[C@H]1O[C@@H]2O[C@H]3[C@H](O)[C@@H](O)[C@@H](O[C@H]4[C@H](O)[C@@H](O)[C@@H](O[C@H]5[C@H](O)[C@@H](O)[C@@H](O[C@H]6[C@H](O)[C@@H](O)[C@@H](O[C@H]7[C@H](O)[C@@H](O)[C@@H](O[C@H]8[C@H](O)[C@@H](O)[C@@H](O[C@H]9[C@H](O)[C@@H](O)[C@@H](O[C@H]1[C@H](O)[C@H]2O)O[C@@H]9CO)O[C@@H]8CO)O[C@@H]7CO)O[C@@H]6CO)O[C@@H]5CO)O[C@@H]4CO)O[C@@H]3CO [Compound 15, γ-cyclodextrin]
- Dose (ED50) producing 50% reversal of steady-state neuromuscular block [1]: 1189 (2) μmol.kg^−1
- Mouse hemidiaphragm: maximum reversal (%) ([2]; 3.1 μM rocuronium): 94%
- concentration of chemical chelator at maximum reversal ([2]; 3.1 μM rocuronium, mouse hemidiaphragm): 144 µM
- Reversal of the neuromuscular blocking action of rocuronium (in words) ([2]; rocuronium-induced block): efficiently blocked
- Dose (ED50) producing 50% reversal of steady-state neuromuscular block [3]: 4 (3) μmol.kg^−1
- Dose (ED50) producing 50% reversal of steady-state neuromuscular block [4]: 75 (4) μmol.kg^−1
- Dose (ED50) producing 50% reversal of steady-state neuromuscular block [5]: 1710 (2) μmol.kg^−1
- Dose (ED50) producing 50% reversal of steady-state neuromuscular block [6]: 2793 (4) μmol.kg^−1
- Dose (ED50) producing 50% reversal of steady-state neuromuscular block [7]: 630 (2) μmol.kg^−1
- Dose (ED50) producing 50% reversal of steady-state neuromuscular block [8]: 1690 (2) μmol.kg^−1
- Dose (ED50) producing 50% reversal of steady-state neuromuscular block [9]: 186 (4) μmol.kg^−1
- Association constant (Ka, M^−1) of 1:1 complex of rocuronium bromide and cyclic host compound [10]: 10,000–20,400# M^−1
- Dose (ED50) producing 50% reversal of steady-state neuromuscular block [11]: 57 (3) μmol.kg^−1
